Experimental data taken from patent US12274680B2, “Treatment of benign prostatic hypertrophy with capsinoids” (priority 2022, dated 2025).

Columns and labels:
BPH = conditions: longer term studies; cited from earlier work
[1] = system: bladder outlet obstruction (BOO) due to benign prostatic hypertrophy (BPH); experiment: Case observation of one patient with BOO due to BPH (self-catheterization frequency, urine flow, PSA, prostate size); assay type: in vivo
Experimental: A patient suffering from BOO due to BPH was experiencing increasing symptoms of BOO from 2018 to 2022 in addition to increasing levels of prostate specific antigen (PSA). This patient preferred the occasional self-catheterization to surgical treatment of the BPH. From 2018 to 2021 the self-catheterization frequency associated with 8 mg of silodosin (an alpha-1 antagonist/blocker) orally daily was about once every 6 months. […] By January 2022, the self-catheterization was weekly. The patient commented that most of the times self-catheterization was necessary, followed a decreased intake of spicy foods, which were an almost daily ingestion for this patient. The patient was instructed to ingest 40,000 SHU (Scoville Heat Units) daily in the form of a cayenne nutraceutical capsule obtained over the counter (OTC) at a pharmacy. The cayenne capsule is a powder of ground chili pepper with a claimed total capsinoid activity of 40,000 SHU resulting from the mixture of capsinoid chemicals in the pepper. […] These clinical findings are consistent with the dramatic improvement in BOO following treatment with oral capsinoids.

Structure (SMILES)	urinary flow rates and subjective symptom scores (BPH)	adverse event ([1]; silodosin 8 mg orally daily, led to dose decrease to 4 mg)	self-catheterization frequency ([1]; silodosin dose decreased to 4 mg, by January 2022)
COc1cc2nc(N3CCN(C(=O)C4COc5ccccc5O4)CC3)nc(N)c2cc1OC (stereo not drawn) [doxazosin]	significant improvements		
O=C(NC1CCN(CCc2c[nH]c3ccccc23)CC1)c1ccccc1 [indoramin]	significant improvements		
COc1cc2nc(N3CCN(C(=O)c4ccco4)CC3)nc(N)c2cc1OC [prazosin]	significant improvements		
C[C@H](Cc1cc2c(c(C(N)=O)c1)N(CCCO)CC2)NCCOc1ccccc1OCC(F)(F)F [silodosin]		severe cardiovascular adverse event	weekly
COc1cc2nc(N3CCN(C(=O)C4CCCO4)CC3)nc(N)c2cc1OC (stereo not drawn) [terazosin]	significant improvements		
